The values below are quoted from earlier work in publication PMC7400207, “It Takes Two: Dimerization Is Essential for the Broad-Spectrum Predatory and Defensive Activities of the Venom Peptide Mp1a from the Jack Jumper Ant Myrmecia pilosula” (Biomedicines, 2020).

Where no end group is shown, it is not given here.

The series has as its system trypanosomes. The following applies: cited from earlier work. From the text: However, the anthelmintic activity of the dimers was only observed at concentrations 10-fold higher than required for neuronal cell activation, cytotoxicity and hemolysis.

Consider “cupiennin-1a: broadly cytolytic peptide from the wandering spider Cupiennius salei (GFGALFKFLAKKVAKTVAKQAAKQGAKYVVNKQME; ends and bridges not checked; UniProt P83619 1-35, looked up)”, for which the “Selectivity for trypanosomes over human red blood cells” value is > 400 fold.
